Results on one molecule are retold here after ChEMBL document CHEMBL4390652, “Design, biological evaluation and X-ray crystallography of nanomolar multifunctional ligands targeting simultaneously acetylcholinesterase and glycogen synthase kinase-3” (Eur J Med Chem, 2019).

Assay [1] has as its target Mitogen-activated protein kinase kinase kinase 20 (Homo sapiens) (UniProt Q9NYL2). Kind of assay: Binding affinity to wild-type human partial length ZAK (M1 to L331 residues) expressed in bacterial expression system assessed as residual binding level at 10 uM by Kinomescan method relative to control.
Assay [2] concerns the target Interleukin-1 receptor-associated kinase 3 (Homo sapiens) (UniProt Q9Y616). As to the kind of experiment: Binding affinity to wild-type human partial length IRAK3 (V147 to E596 residues) expressed in bacterial expression system assessed as residual binding level at 10 uM by Kinomescan method relative to control.
For assay [3], the target named is Serine/threonine-protein kinase NLK (Homo sapiens) (UniProt Q9UBE8). As to the kind of experiment: Binding affinity to wild-type human full length NLK (M13 to E527 residues) expressed in bacterial expression system assessed as residual binding level at 10 uM by Kinomescan method relative to control.
In assay [4] the target is Serine/threonine-protein kinase Sgk1 (Homo sapiens) (UniProt O00141). Kind of assay: Binding affinity to wild-type human partial length SGK (I60 to L431 residues) expressed in mammalian expression system assessed as residual binding level at 10 uM by Kinomescan method relative to control.
Assay [5] concerns the target Cyclin-dependent kinase 3 (Homo sapiens) (UniProt Q00526). Kind of assay: Binding affinity to wild-type human full length CDK3 (M1 to H305 residues) expressed in bacterial expression system assessed as residual binding level at 10 uM by Kinomescan method relative to control.
The target in assay [6] is Death-associated protein kinase 3 (Homo sapiens) (UniProt O43293). As to the kind of experiment: Binding affinity to wild-type human partial length DAPK3 (M1 to A277 residues) expressed in bacterial expression system assessed as residual binding level at 10 uM by Kinomescan method relative to control.
Assay [7] concerns Mast/stem cell growth factor receptor Kit (Homo sapiens), P10721 [UNDEFINED MUTATION]. Kind of assay: Binding affinity to human partial length KIT V559D/V654 double mutant (Y545 to D952 residues) expressed in bacterial expression system assessed as residual binding level at 10 uM by Kinomescan method relative to control.
Assay [8] has as its target Ephrin type-A receptor 6 (Homo sapiens) (UniProt Q9UF33). As to the kind of experiment: Binding affinity to wild-type human partial length EPHA6 (Y700 to E1046 residues) expressed in bacterial expression system assessed as residual binding level at 10 uM by Kinomescan method relative to control.
In assay [9] the target is Serine/threonine-protein kinase WNK4 (Homo sapiens) (UniProt Q96J92). Kind of assay: Binding affinity to wild-type human partial length WNK4 (A31 to D461 residues) expressed in mammalian expression system assessed as residual binding level at 10 uM by Kinomescan method relative to control.
Assay [10] deals with Calcium/calmodulin-dependent protein kinase type 1D (Homo sapiens) (UniProt Q8IU85). Kind of assay: Binding affinity to wild-type human partial length CAMK1D (M1 to K299 residues) expressed in bacterial expression system assessed as residual binding level at 10 uM by Kinomescan method relative to control.
In assay [11] the target is Bone morphogenetic protein receptor type-2 (Homo sapiens) (UniProt Q13873). Kind of assay: Binding affinity to wild-type human partial length BMPR2 (R179 to Q526 residues) expressed in mammalian expression system assessed as residual binding level at 10 uM by Kinomescan method relative to control.
In assay [12] the target is Serine/threonine-protein kinase 3 (Homo sapiens) (UniProt Q13188). As to the kind of experiment: Binding affinity to wild-type human partial length MST2 (D17 to E318 residues) expressed in bacterial expression system assessed as residual binding level at 10 uM by Kinomescan method relative to control.
Assay [13] concerns the target Dual serine/threonine and tyrosine protein kinase (Homo sapiens) (UniProt Q6XUX3). Kind of assay: Binding affinity to wild-type human full length RIPK5 (M1 to T929 residues) expressed in mammalian expression system assessed as residual binding level at 10 uM by Kinomescan method relative to control.
In assay [14] the test system is Proto-oncogene tyrosine-protein kinase receptor Ret (Homo sapiens), P07949 [V804L]. Kind of assay: Binding affinity to human partial length RET V804L mutant (E713 to D1014 residues) expressed in bacterial expression system assessed as residual binding level at 10 uM by Kinomescan method relative to control.
For assay [15], the target named is Wee1-like protein kinase (Homo sapiens) (UniProt P30291). Kind of assay: Binding affinity to wild-type human partial length WEE1 (M291 to K575 residues) expressed in bacterial expression system assessed as residual binding level at 10 uM by Kinomescan method relative to control.
Assay [16] deals with Serine/threonine-protein kinase ULK1 (Homo sapiens) (UniProt O75385). Kind of assay: Binding affinity to wild-type human partial length ULK1 (M1 to T309 residues) expressed in mammalian expression system assessed as residual binding level at 10 uM by Kinomescan method relative to control.
The target in assay [17] is Leukocyte tyrosine kinase receptor (Homo sapiens) (UniProt P29376). As to the kind of experiment: Binding affinity to wild-type human partial length LTK (P422 to S744 residues) expressed in bacterial expression system assessed as residual binding level at 10 uM by Kinomescan method relative to control.
In assay [18] the target is 5'-AMP-activated protein kinase catalytic subunit alpha-1 (Homo sapiens) (UniProt Q13131). As to the kind of experiment: Binding affinity to wild-type human partial length AMPK alpha1 (M1 to E306 residues) expressed in bacterial expression system assessed as residual binding level at 10 uM by Kinomescan method relative to control.
Assay [19] has as its target Ribosomal protein S6 kinase alpha-1 (Homo sapiens) (UniProt Q15418). Kind of assay: Binding affinity to wild-type human partial length C-terminal RSK1 kinase domain 2 (P360 to L681 residues) expressed in bacterial expression system assessed as residual binding level at 10 uM by Kinomescan method relative to control.
Assay [20] has as its target Mitogen-activated protein kinase 13 (Homo sapiens) (UniProt O15264). Kind of assay: Binding affinity to wild-type human full length p38-delta (M1 to L365 residues) expressed in bacterial expression system assessed as residual binding level at 10 uM by Kinomescan method relative to control.
For assay [21], the system named is Epidermal growth factor receptor (Homo sapiens), P00533 [UNDEFINED MUTATION]. As to the kind of experiment: Binding affinity to human partial length EGFR L747-S752del/P753S mutant expressed in bacterial expression system assessed as residual binding level at 10 uM by Kinomescan method relative to control.
Assay [22] has as its target Serine/threonine-protein kinase PLK3 (Homo sapiens) (UniProt Q9H4B4). Kind of assay: Binding affinity to wild-type human partial length PLK3 (A42 to L334 residues) expressed in mammalian expression system assessed as residual binding level at 10 uM by Kinomescan method relative to control.
Assay [23] has as its target Angiopoietin-1 receptor (Homo sapiens) (UniProt Q02763). Kind of assay: Binding affinity to wild-type human partial length TIE2 (N804 to T1112 residues) expressed in bacterial expression system assessed as residual binding level at 10 uM by Kinomescan method relative to control.
In assay [24] the test system is Epidermal growth factor receptor (Homo sapiens), P00533 [UNDEFINED MUTATION]. As to the kind of experiment: Binding affinity to human partial length EGFR S752-I759del mutant expressed in bacterial expression system assessed as residual binding level at 10 uM by Kinomescan method relative to control.

Sequence of Epidermal growth factor receptor (Homo sapiens), P00533 [UNDEFINED MUTATION] (P00533 whole entry, looked up, stated change not applied, the tested form may be a part): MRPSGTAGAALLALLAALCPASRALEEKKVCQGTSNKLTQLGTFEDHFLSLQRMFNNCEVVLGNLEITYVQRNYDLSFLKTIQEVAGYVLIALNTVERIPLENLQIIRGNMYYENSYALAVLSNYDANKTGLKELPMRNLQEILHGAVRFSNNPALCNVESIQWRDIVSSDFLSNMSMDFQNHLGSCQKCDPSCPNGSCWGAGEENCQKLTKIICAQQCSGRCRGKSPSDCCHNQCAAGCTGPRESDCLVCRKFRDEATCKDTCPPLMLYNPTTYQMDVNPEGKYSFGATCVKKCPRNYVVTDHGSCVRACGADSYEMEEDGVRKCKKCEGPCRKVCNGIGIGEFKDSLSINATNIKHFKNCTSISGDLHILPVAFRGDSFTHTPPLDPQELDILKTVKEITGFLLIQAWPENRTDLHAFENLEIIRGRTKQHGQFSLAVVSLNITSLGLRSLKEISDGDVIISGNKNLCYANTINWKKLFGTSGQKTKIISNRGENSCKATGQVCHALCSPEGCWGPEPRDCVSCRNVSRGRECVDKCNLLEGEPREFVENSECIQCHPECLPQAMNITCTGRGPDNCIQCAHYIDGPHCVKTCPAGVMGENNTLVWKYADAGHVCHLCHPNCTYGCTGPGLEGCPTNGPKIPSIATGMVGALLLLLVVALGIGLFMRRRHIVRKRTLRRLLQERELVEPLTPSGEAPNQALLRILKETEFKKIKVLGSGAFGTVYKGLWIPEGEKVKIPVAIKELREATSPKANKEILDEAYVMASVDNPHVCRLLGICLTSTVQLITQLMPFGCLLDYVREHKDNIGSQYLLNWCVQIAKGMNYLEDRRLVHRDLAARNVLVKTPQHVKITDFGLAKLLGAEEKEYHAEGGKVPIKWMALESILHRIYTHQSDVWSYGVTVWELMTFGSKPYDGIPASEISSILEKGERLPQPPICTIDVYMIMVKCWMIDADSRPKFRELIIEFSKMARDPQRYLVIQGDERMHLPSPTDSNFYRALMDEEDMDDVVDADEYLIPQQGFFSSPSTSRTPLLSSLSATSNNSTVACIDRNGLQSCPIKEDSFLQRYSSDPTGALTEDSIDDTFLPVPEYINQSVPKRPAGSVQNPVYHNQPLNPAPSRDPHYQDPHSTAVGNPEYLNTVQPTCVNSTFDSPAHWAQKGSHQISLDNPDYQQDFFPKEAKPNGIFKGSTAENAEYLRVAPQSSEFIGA
Sequence of Bone morphogenetic protein receptor type-2 (Homo sapiens) (Q13873 whole entry, the tested form may be a part): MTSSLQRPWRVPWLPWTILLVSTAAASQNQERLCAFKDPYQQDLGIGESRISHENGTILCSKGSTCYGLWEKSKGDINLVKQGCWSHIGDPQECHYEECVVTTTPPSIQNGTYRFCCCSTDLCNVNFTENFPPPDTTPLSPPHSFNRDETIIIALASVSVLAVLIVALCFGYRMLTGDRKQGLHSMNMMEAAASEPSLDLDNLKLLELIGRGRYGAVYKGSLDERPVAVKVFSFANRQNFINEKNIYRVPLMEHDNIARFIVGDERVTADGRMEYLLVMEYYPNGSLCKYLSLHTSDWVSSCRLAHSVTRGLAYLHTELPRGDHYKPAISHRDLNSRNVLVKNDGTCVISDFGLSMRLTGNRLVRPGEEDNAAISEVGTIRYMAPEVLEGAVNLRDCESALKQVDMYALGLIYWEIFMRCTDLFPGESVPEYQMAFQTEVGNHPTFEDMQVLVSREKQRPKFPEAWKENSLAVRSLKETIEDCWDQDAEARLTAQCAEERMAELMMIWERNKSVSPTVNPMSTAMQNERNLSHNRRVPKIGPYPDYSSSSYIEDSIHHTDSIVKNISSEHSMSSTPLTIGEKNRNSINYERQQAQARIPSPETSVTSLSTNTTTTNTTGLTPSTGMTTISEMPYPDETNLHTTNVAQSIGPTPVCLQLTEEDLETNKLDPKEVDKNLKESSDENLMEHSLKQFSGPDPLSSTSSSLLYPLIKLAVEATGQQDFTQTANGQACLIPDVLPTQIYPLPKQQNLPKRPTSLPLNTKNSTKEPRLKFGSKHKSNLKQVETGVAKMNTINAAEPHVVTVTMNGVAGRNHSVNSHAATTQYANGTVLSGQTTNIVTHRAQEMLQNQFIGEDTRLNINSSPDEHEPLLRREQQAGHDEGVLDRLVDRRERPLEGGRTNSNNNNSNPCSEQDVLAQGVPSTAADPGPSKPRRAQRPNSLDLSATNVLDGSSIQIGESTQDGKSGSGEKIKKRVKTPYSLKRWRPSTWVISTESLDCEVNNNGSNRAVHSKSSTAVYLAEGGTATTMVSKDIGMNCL
Sequence of Dual serine/threonine and tyrosine protein kinase (Homo sapiens) (Q6XUX3 whole entry, the tested form may be a part): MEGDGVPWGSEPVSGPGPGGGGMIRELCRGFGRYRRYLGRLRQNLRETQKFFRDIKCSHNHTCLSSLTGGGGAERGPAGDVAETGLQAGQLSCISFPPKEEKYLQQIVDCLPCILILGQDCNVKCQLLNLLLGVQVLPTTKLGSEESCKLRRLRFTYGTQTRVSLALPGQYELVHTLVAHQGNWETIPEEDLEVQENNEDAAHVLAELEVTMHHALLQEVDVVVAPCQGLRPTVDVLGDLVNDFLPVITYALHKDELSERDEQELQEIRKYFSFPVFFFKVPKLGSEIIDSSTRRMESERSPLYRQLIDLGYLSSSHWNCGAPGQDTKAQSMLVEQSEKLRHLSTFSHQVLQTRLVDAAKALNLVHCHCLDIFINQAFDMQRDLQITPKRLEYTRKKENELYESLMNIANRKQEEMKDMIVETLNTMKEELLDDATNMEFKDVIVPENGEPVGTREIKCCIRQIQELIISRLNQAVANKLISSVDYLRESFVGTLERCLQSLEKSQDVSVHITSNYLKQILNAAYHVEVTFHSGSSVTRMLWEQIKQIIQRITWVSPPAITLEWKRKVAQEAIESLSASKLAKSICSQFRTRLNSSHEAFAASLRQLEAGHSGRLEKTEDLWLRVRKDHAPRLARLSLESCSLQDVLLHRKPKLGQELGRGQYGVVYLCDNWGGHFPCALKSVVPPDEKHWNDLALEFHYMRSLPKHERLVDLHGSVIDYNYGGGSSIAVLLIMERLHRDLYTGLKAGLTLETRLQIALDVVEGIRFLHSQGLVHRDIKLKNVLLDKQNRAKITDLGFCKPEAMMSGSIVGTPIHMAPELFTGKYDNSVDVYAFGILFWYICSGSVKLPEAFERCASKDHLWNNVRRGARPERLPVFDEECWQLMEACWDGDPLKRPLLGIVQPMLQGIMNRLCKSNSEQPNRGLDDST
Sequence of Mitogen-activated protein kinase kinase kinase 20 (Homo sapiens) (Q9NYL2 2-800 limits assumed): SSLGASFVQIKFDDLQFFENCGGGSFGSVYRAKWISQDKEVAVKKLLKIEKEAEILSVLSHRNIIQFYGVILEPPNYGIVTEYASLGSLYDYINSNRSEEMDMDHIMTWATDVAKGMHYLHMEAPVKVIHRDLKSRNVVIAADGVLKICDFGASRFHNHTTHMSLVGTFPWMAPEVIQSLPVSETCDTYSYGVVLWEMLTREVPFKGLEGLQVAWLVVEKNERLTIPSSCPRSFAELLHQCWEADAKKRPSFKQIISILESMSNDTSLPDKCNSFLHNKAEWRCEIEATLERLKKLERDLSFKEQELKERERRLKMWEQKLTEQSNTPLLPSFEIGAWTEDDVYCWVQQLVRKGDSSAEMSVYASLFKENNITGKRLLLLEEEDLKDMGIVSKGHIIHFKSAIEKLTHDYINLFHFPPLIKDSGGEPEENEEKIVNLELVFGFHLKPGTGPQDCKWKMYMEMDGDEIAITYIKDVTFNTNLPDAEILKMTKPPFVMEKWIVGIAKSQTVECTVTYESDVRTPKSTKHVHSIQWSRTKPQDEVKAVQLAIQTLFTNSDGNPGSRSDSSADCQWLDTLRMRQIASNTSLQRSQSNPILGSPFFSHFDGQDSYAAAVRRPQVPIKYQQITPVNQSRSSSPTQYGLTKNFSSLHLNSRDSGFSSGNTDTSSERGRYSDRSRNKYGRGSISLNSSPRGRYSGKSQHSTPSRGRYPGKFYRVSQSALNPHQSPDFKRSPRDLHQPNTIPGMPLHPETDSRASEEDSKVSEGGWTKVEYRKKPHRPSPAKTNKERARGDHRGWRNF
Sequence of Serine/threonine-protein kinase NLK (Homo sapiens) (Q9UBE8 whole entry, the tested form may be a part): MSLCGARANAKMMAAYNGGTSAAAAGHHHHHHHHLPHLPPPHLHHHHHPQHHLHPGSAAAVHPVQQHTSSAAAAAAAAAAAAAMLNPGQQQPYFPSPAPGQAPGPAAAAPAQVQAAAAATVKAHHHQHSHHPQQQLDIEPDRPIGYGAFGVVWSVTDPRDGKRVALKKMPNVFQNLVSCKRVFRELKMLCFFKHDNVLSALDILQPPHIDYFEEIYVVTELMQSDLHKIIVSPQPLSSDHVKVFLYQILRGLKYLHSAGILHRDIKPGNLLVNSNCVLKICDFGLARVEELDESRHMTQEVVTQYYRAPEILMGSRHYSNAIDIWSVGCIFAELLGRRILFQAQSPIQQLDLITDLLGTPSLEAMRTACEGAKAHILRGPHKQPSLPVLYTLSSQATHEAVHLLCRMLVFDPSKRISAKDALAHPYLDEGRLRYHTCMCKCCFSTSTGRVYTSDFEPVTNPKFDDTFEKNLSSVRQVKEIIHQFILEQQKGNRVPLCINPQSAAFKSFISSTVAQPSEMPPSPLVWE
Sequence of Death-associated protein kinase 3 (Homo sapiens) (O43293 whole entry, looked up, the tested form may be a part): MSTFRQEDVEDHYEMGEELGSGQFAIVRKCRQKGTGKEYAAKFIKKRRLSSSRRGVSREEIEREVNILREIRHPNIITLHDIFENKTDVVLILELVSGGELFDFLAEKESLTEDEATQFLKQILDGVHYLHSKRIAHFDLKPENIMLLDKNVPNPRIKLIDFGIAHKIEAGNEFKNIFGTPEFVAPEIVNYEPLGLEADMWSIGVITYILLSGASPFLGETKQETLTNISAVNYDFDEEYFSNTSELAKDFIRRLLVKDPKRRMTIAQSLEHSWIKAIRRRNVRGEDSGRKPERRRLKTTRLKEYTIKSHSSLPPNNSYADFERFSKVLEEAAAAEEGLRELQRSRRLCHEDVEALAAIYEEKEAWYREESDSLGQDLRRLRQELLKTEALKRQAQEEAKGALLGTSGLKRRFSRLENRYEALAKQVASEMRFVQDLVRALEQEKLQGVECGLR

For the molecule `O=C(Nc1cc(-c2cn(CCNc3c4c(nc5ccccc35)CCCC4)nn2)ccn1)Nc1cccc2c1C1CCCCN1C2=O` (racemic), the Activity in [1] came to 31%; in assay [2] it was 16%; in assay [3], 70%; in assay [4] it was 0.3%; in assay [5], 90%; in assay [6] it was 66%. Further, the Activity in assay [7] turned out to be 38%; in assay [8], 97%; in [9], 100%; in assay [10], 48%; in assay [11], 55%; in [12] it was 21%. Also, the Activity in assay [13] was determined as 49%; in assay [14], 16%; in assay [15], 100%; in [16], 38%; in assay [17] it was 100%; in [18], 31%. Besides, the Activity in assay [19] was found to be 53%; in [20], 73%; in [21] it was 80%; in [22], 77%; in assay [23] it was 77%; in assay [24] it was 80%.
